# Measurements from patent US6942663B2, “Laser treatment of cutaneous vascular lesions” (Board of Regents, The University of Texas System, priority 2002, dated 2005).
# Entries after “also recorded” stand apart in the source; their conditions may differ.
# Key:
# Format in all cases: in vivo, hamster
# [1] = test system: main arteriole-venule pair of the dorsal skin flap window preparation; experiment: Epidermal laser irradiation of main arteriole-venule pair after glycerol, CDOCT assessment at 24 h
# From the text: (§1) Anhydrous glycerol was applied to the subdermal side of the dorsal skin flap window preparation. The subdermal side of the window preparation contains a well approximately 2 mm deep and 1 cm in diameter placed directly over the exposed subdermal skin. A small opening at the bottom allows the flow of glycerol out of the well. This well was filled with glycerol and continually refilled for a total time of twenty minutes. Any remaining glycerol was removed from the well at the end of twenty minutes.
# In this set of experiments, three dorsal skin flap window preparations were treated with glycerol on the subdermal side of the skin. Then, the main arteriole-venule pair (such as the one labeled A and V in FIG. 3) was irradiated from the epidermal side to determine the approximate range of radiant exposures required to permanently destroy blood vessels in skin treated with glycerol. Since no published data exists for direct comparison with controls, two native hamster dorsal skin flap window preparations were irradiated from the epidermal side as well.
# (§2) The skin surrounding the main arteriole-venute pair in each window preparation was first imaged using Color Doppler optical coherence tomography (CDOCT) (see FIG. 5). The skin was imaged from the subdermal side since these blood vessels are located approximately 100 μm from the subdermal surface, allowing for accurate determination of vessel flow and size characteristics. In the case of control samples (2), the vessels were irradiated from the epidermal side immediately after imaging the native skin. This was achieved by applying a single pulse from a 532 nm, 3 mm spot size, 10 ms pulse duration laser (Versapulse V, Coherent) to the skin without altering its position relative to the CDOCT sample probe. The experimental setup is illustrated in FIG. 5.
# The skin was imaged again to assess changes to blood flow. […] If any changes in flow or vessel size were observed, the skin was not irradiated again and was imaged after 24 hours. In all, 5 pulses were delivered ranging in radiant exposure from 4.13 J/cm^2 to 16 J/cm^2, the maximum allowable for the laser parameters used. In the second control sample, only a single pulse was delivered with a radiant exposure of 12 J/cm^2.
# (§3) In the other three samples, glycerol was applied to the subdermal side of the window preparation for twenty minutes after imaging the native skin with CDOCT. The optically cleared skin was then imaged again using CDOCT. Laser pulses were applied in the same manner described above and the skin was re-imaged after twenty-four hours to assess if permanent vessel closure occurred.
# [2] = test system: blood vessels (arterioles and venules) in skin; experiment: Effect of glycerol applied to the subdermal side of skin on blood flow (dorsal skin flap window preparation, CDOCT imaging)
# Protocol: Hamsters were anesthetized with a 4:3 mixture of Ketamine (20 mg/ml):Rompun (100 mg/ml) and 0.15 ml/100 g body weight of the solution was delivered IP. […] This in vivo model allows the simultaneous observation of the epidermal and subdermal sides of the skin while maintaining hydration and function [Papenfuss et al., 1979]. The preparation has been used as an in vivo model for optical imaging blood vessels on the subdermal side of skin while maintaining access to the epidermis [Barton et al., 1998, Vargas et al., 2001].
# The preparation includes shaving and epilating the entire dorsal area of a hamster. The skin is pulled away from the body along the dorsal midline and sutured to a vertical c-clamp. A circular region 1 cm in diameter is cut from one single thickness of skin, exposing the subdermal side of the opposing thickness of skin. An aluminum chamber is sutured to both sides of the skin, and glass is placed over the cutout section to prevent the tissue from dehydrating on the subdermal side. During the experiments, this glass is removed for improved imaging, and hydration is maintained with application of physiological saline.
# Blood vessels in the skin of the dorsal window preparation are located in the subdermal fat and connective tissue layers approximately 400-700 μm beneath the epidermal surface and about 80-100 μm from the exposed subdermal surface of a 100 g hamster. Arterioles and venules in the dorsal window preparation range in diameter between about 50-500 μm in inner diameter, with the main arteriole and venule about 350-500 μm in diameter.
# as §1, §2, §3
# [3] = test system: arterioles and venules of the dorsal skin flap window preparation; experiment: Subdermal (direct) laser irradiation of blood vessels after glycerol, RE50 for permanent coagulation; conditions: 532 nm, 10 ms pulse, 3 mm spot, versus published native skin values [Barton et al., 1998]
# From the text: as §1
compound,measurement,setting,value
OCC(O)CO [glycerol],vessel outcome 24 h after single pulse of 1.6 J/cm^2,"[1]; glycerol twenty minutes, arteriole 250 μm, venule 300 μm, 450 μm from epidermal surface, skin hydrated",Permanent coagulation has been achieved in both blood vessels; also recorded: flow has not returned to either vessel
same,vessel outcome after radiant exposure of 4.13 J/cm^2,"[1]; glycerol, 200 μm arteriole and 410 μm venule",successful permanent coagulation
same,vessel outcome after radiant exposure of 4.95 J/cm^2,"[1]; glycerol, 300 μm arteriole and 390 μm venule",only the venule was successfully coagulated
same,lowest radiant exposure that successfully destroyed blood vessels,"[1]; three window preparations, glycerol before irradiation from the epidermal side, 532 nm, 10 ms, 3 mm spot",1.6 J/cm^2
same,permanent vessel damage from agent alone,"[2]; addition of agent to blood vessels, no laser",did not result in any permanent vessel damage
same,flow in arterioles,"[2]; glycerol added to subdermal side of skin, prolonged periods of exposure",flow in arterioles ceased as well
same,flow in venules,"[2]; glycerol added to subdermal side of skin, within twenty minutes, venules approximately 100-400 μm in diameter",ceased
same,flow in arteriole and venule (Doppler image),"[2]; glycerol for twenty minutes, arteriole 250 μm, venule 300 μm, imaged from subdermal side",no flow remains; also recorded: flow does not remain in either the arteriole or venule
same,flow in arterioles and venules after hydration (reversibility),[2]; skin hydrated in physiologic saline solution after glycerol,returned to physiologic values; also recorded: upon hydration the skin and blood vessels return to their native state
same,"reduction of radiant exposure required for permanent vessel destruction, arterioles",[3],10 factor
same,"reduction of radiant exposure required for permanent vessel destruction, venules",[3],5-8 factor
